Entries after “also recorded” stand apart in the source; their conditions may differ.
Assays:
Assay type in all cases: in vivo, human
[1] = test system: osteoarthritis of the knees; assay: Example 24: osteoarthritis, knees
Description: Several days later, a repeated application of the same procedure gave the same results.

[2] = test system: eczema; assay: Examples 30 and 37: itch and eczema
Description: subject two, with a 25 year history of eczema, was provided a topical formulation of 6% C15 in a lotion made up of hydrophilic ointment USP 35% diluted with 65% water. […] They emphasized, however, that their eczema worsens in the autumn and winter, so their final judgment needs to be delayed from the summer season to several months later.
subject four with a 14 year history of eczema was provided the same lotion.
subject three, with a history of eczema for 35 years, was provided the same solution. […] They have expressed great gratitude and hopes that the same beneficial results will persist during the autumn and winter seasons.
subject two, with a 25 year history of eczema, was provided a topical formulation of 6% C15 in a lotion made up of hydrophilic ointment USP 35% diluted with 65% water. After ten days of topical applications, itch was relieved for intervals of 1.5 hour up to 24 hours. […] Sites of itch were treated with prompt application of the above lotion which completely aborted further development.
subject four with a 14 year history of eczema was provided the same lotion. […] Patient has moved from the area and has been lost to long term follow up.
subject three, with a history of eczema for 35 years, was provided the same formulation. […] They expressed great gratitude and hoped that the same beneficial results would persist during the autumn and winter months.
They reported: “I use it sparingly. If I feel any itch or see a little patch I put it on and it's gone like the next day. […] It's so great. It's miraculous!”

[3] = test system: dermatitis of uncertain etiology; assay: Example 32: itch of dermatitis of uncertain etiology
Protocol: subject one who had worked planting a new rock and flower garden during the day, in the evening became acutely aware of an itch sensation in the lower back, just below the beltline. […] Itch relief lasted for 2-3 hours; three additional applications were made during the night. […] Etiology was not ascertained.

[4] = 6% lotion as needed, person three

## CCOC(=O)CN(C)C(N)=NC(C)=O [Compound C15, N-acetyl ethyl creatinate]
[1]; 8% in WP 82, even with occlusion, person, severe osteoarthritis
  duration of pain relief: 3 to 4 h
[1]; 8% in WP 82 on gauze wrapping occluded with plastic wrap, overnight, person
  extent of pain relief: complete relief of pain
[1]; 8% with occlusion overnight
  duration of complete relief (sleep): 8 h
[1]; 8% with occlusion, person
  diminishment of pain after removal in the morning: 85-90%
  duration of diminishment after removal: 7 to 8 h
[2]; [4]
  itch after 4 days of application: itch was now negligible; also recorded: itch became negligible
  signs of eczema on skin: skin was nearly entirely free of signs of eczema; also recorded: skin became nearly entirely free of signs of eczema
[2]; 6% lotion, 2 weeks, person four
  extent of itch relief: itch was relieved completely
[2]; 6% lotion, person four
  duration of itch relief after a single application: 24 to 48 h
[2]; 6% lotion, person two
  eczema after ten days: felt that their eczema was undergoing resolution
  eczema at the end of the following February: eczema was still under almost complete resolution
[2]; person three
  skin at the end of February: their skin has remained clear
[3]; 4% in water: propylene glycol 8:2, topical
  extent of itch relief: Itch was completely relived
[3]; 4% topical
  duration of itch relief: 2 to 3 h
[3]; three additional applications during the night
  resolution of dermatitis and itch: The dermatitis and itch resolved early next day
